Experimental findings from US6566047B1, “Method for identifying neurite-growth promoting agents” (The Regents of the University of Colorado, priority 1998, dated 2003) are described below.

This experiment concerns PC-3M-MM2 cells. The experiment in a line: Boyden chamber assay, PC-3M-MM2 cells. The class given is cell-based, human. The protocol:
In addition, seven human prostate carcinoma cell lines were used (see Table 2). One or two cell lines of medium to high motility (e.g., PC-3M-MM2 and DU145) are first selected. The PC-3M-MM2 cells disperse rapidly in the dish and, like the MAT-Lu cells, never form colonies. Cells are grown according to standard procedures. Large numbers of aliquots of all cancer cell lines arc collected and frozen in order to avoid the use of higher passage numbers in later experiments. As the experimentation progresses, the motility and morphology of the cells is re-checked to avoid distortion of results by changes in phenotype. For experimental use, cells are kept well below confluence. In order to test for potential effects of the growth matrix, cells are grown for selected experiments not only on serum-conditioned tissue culture plastic but also on laminin, collagen, fibronectin or Matrigel (Life Technologies/GIBCO-BRL, Gaitheresberg, Md.; Becton Dickinson/Collaborative Biomedical Products, Bedford Mass.). […] The motility, of all cells is assessed quantitatively using the (long-term) Boyden chamber assay as described in Boyden, J. Exp. Med. 115:453-466 (1962), incorporated herein by reference. […] The relative number of cells moving within 3-6 hours across the membrane from the upper well is counted in the presence or absence of IGF-1 in the lower chamber.

Regarding “thrombin: potent growth cone repellent; commercially available thrombin (Sigma); rat thrombin in Boyden assays”, the “effect on cell motility” value was “potent inhibitor of cell motility”.
